# Results taken from US20230159469A1, “NOVEL PHTHALAZINE DERIVATIVE HAVING ECTONUCLOEOTIDE PYROPHOSPHATASE/PHOSPHODIESTE RASE INHIBITORY ACTIVITY, AND USE THEREOF” (TXINNO BIOSCIENCE INC., priority 2020, published 2023).
# pIC50: −log10 of the molar value. Structures can show the parent of a compound that is named as a salt.
# Biological target: T1, human recombinant ENPP1 (Homo sapiens, UniProt P22413)
# T1 construct: purchased R & D systems
# T1 sequence (P22413 1-925): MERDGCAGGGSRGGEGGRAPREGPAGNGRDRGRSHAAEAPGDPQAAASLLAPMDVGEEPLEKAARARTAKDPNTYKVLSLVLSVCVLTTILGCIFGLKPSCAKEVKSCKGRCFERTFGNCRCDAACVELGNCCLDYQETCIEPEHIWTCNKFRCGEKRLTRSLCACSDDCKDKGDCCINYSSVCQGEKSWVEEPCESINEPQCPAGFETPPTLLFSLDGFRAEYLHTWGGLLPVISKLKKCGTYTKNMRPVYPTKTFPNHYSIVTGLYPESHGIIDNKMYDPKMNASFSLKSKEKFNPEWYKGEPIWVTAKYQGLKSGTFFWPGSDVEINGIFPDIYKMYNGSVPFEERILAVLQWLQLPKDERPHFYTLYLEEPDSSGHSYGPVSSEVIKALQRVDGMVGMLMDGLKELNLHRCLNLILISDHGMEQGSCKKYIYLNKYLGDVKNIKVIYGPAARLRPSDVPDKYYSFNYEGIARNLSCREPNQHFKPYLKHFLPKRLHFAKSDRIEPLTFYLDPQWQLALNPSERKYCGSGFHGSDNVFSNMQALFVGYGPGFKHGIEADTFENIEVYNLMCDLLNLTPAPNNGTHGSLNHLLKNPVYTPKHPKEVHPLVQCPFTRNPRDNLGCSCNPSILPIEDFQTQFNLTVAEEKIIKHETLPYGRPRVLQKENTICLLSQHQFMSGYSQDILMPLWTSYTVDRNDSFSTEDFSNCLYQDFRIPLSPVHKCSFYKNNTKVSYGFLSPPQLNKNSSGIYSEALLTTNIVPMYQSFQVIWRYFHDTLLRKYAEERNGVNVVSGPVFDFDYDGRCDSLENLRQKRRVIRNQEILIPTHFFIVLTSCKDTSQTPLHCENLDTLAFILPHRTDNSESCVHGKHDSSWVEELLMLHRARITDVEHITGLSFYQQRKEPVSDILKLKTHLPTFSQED
# Assay: ENPP1 enzyme assay with cGAMP substrate (AMP-Glo luminescence)
# Type: biochemical
# Details: human recombinant ENPP1 3 ng/reaction, cGAMP 5 μM, 37° C. 90 minutes, read-out: Enzymatic activity (ENPP1 IC50)
# Procedure: ENPP1 hydrolyzes nucleotides or nucleotide derivatives to produce nucleoside -5′-monophosphate and pyrophosphate. in addition, ENPP1 hydrolyzes 2′,3′-cGAMP to produce 5′-adenosine monophosphate (AMP) and 5′-guanosine monophosphate (GMP). AMP produced from the reaction is measured using the AMP-Glo® kit (Promega). The AMP-Glo® kit contains two reagents. The first reagent terminates the AMP-producing enzymatic reaction, removes ATP and converts the produced AMP into ADP. The second reagent converts ADP to ATP which is used to generate luminescence in the luciferase reaction. The amount of luminescence measured is proportional to the amount of AMP produced by ENPP1.
# The final reaction mixture contains 50 mM Tris (pH 8.5) buffer, 250 mM NaCl, 0.5 mM. CaCl2, 1 μM ZnCl2, 5% glycerol and 1% DMSO. […] The reaction was initiated by addition of cGAMP (at a final concentration of 5 μM) and reacted at 37° C. for 90 minutes. At the end of the reaction, 10 μl of the AMP-Glo first reagent was added to stop the reaction and the result was stored at room temperature for […]. After storage, 20 μl of an AMP detection solution (a mixture of AMP-Glo II reagent and Kinase-Gio at a ratio of 1:100) was added and stored at room. temperature for 1 hour. Luminescence signals were measured using a Victor® plate reader (Perkin Elmer). The maximal activity control (containing enzymes and substrates only in the presence of 1% DMSO; MAX) and the minimal activity control (containing substrates and 1% DMSO; MIN) were evaluated simultaneously. In each experiment, serially diluted reference ENPP1 inhibitors were tested together. IC50, indicating % residual activity versus compound concentration was determined by fitting inhibition curves using the 3-parameter analysis of GraphPad Prism® software. Serially diluted samples of one compound were tested two or more times and an average IC50 of each compound was calculated.
row,SMILES,pIC50
1,"COc1cc2c(-c3ccc4c(c3)CCN(S(=O)(=O)NC(=O)OC(C)(C)C)C4)n[nH]c(=O)c2cc1OC [Compound No. 85, tert-butyl ((6-(6,7-dimethoxy-4-oxo-3,4-dihydrophthalazin-1-yl)-3,4-dihydroisoquinolin-2(1H)-yl)sulfonyl)carbamate]",< 5.00
2,"Cn1nc(-c2cccc(NS(=O)(=O)NC(=O)OC(C)(C)C)c2)c2ccccc2c1=O [Compound No. 61, tert-butyl (N-(3-(3-methyl-4-oxo-3,4-dihydrophthalazin-1-yl)phenyl)sulfamoyl)carbamate]",< 5.00
3,"NS(=O)(=O)Nc1ccc(Cc2n[nH]c(=O)c3ccccc23)cc1C(F)(F)F [Example 192, N-(2-(trifluorobenzylmethyl)-4-((4-oxo-3,4-dihydrophthalazin-1-yl)methyl)phenyl)sulfamide hydrochloride]",> 6.00
4,"Cn1nc(-c2cccc(CNS(=O)(=O)NC(=O)OC(C)(C)C)c2)c2ccccc2c1=O [Compound No. 64, tert-butyl N-(3-(3-methyl-4-oxo-3,4-dihydrophthalazin-1-yl)benzyl)sulfamoyl carbamate]",< 5.00
5,"COc1cc2c(Cc3ccc(Br)cc3)n[nH]c(=O)c2cc1OC [Example 194, 4-(4-bromobenzyl)-6,7-dimethoxyphthalazin-1(2H)-one]",< 5.00
6,"NS(=O)(=O)Nc1ccc(-c2nn(Cc3ccccc3)c(=O)c3ccccc23)cc1 [Compound No. 93, N-(4-(3-benzyl-4-oxo-3,4-dihydrophthalazin-1-yl)phenyl)sulfamide]",< 5.00
7,"COc1cc2c(Cc3ccc(N(C)C(=O)OC(C)(C)C)cc3)n[nH]c(=O)c2cc1OC [Example 152, tert-butyl (4-((6,7-dimethoxy-4-oxo-3,4-dihydrophthalazin-1-yl)methyl)phenyl) (methyl) carbamate]",< 5.00
8,"COc1cc2c(-c3ccc4c(c3)CCNC4)n[nH]c(=O)c2cc1OC [Compound No. 57, 6,7-dimethoxy-4-(1,2,3,4-tetrahydroisoquinolin-6-yl)phthalazin-1(2H)-one hydrochloride]",5.00 to 6.00
9,"COc1cc2c(Cc3ccc(N)cc3)nn(C)c(=O)c2cc1OC [Example 161, 4-(4-aminobenzyl)-6,7-dimethoxy-2-methylphthalazin-1(2H)-one hydrochloride]",< 5.00
10,"COc1cc2c(Cc3ccc(NC(=O)OC(C)(C)C)cc3)nn(C)c(=O)c2cc1OC [Compound No. 150, tert-butyl (4-((6,7-dimethoxy-3-methyl-4-oxo-3,4-dihydrophthalazin-1-yl)methyl)phenyl)carbamate]",< 5.00
11,"NCc1ccc(-c2nn(Cc3ccc(F)cc3)c(=O)c3ccccc23)cc1 [Compound No. 42, 4-(4-(aminomethyl)phenyl)-2-(4-fluorobenzyl)phthalazin-1(2H)-one hydrochloride]",5.00 to 6.00
12,"COc1ccc2c(=O)n(C)nc(-c3ccc(CNS(=O)(=O)NC(=O)OC(C)(C)C)cc3)c2c1 [Compound No. 73, tert-butyl N-(4-(7-methoxy-3-methyl-4-oxo-3,4-dihydrophthalazin-1-yl)benzyl)sulfamoyl carbamate]",< 5.00
13,"COc1ccc2c(-c3ccc(CNS(N)(=O)=O)cc3)n[nH]c(=O)c2c1 [Compound No. 106, N-(4-(6-methoxy-4-oxo-3,4-dihydrophthalazin-1-yl)benzyl)sulfamide hydrochloride]",5.00 to 6.00
14,"COc1cc2c(-c3ccc(CN)cc3)nn(C)c(=O)c2cc1OC [Compound No. 49, 4-(4-(aminomethyl)phenyl)-6,7-dimethoxy-2-methylphthalazin-1(2H)-one hydrochloride]",> 6.00
15,"CC(C)(C)OC(=O)NS(=O)(=O)NCC1CCN(c2n[nH]c(=O)c3ccccc23)CC1 [Compound No. 136, tert-butyl N-((1-(4-oxo-3,4-dihydrophthalazin-1-yl)piperidin-4-yl)methyl)sulfamoyl carbamate]",< 5.00
16,"COc1cc2c(-c3ccc4c(c3)CCN(S(N)(=O)=O)C4)n[nH]c(=O)c2cc1OC [Compound No. 130, 6-(6,7-dimethoxy-4-oxo-3,4-dihydrophthalazin-1-yl)-3,4-dihydroisoquinoline-2(1H)-sulfonamide hydrochloride]",5.00 to 6.00

# Next, values leading:
row,pIC50,SMILES
1,< 5.00,"CC(C)(C)OC(=O)Nc1cccc(-c2n[nH]c(=O)c3ccccc23)c1 [Compound No. 2, tert-butyl (3-(4-oxo-3,4-dihydrophthalazin-1-yl)phenyl)carbamate]"
2,< 5.00,"CC(C)(C)OC(=O)NS(=O)(=O)N1CCc2cc(-c3n[nH]c(=O)c4ccccc34)ccc2C1 [Compound No. 83, tert-butyl ((6-(4-oxo-3,4-dihydrophthalazin-1-yl)-3,4-dihydroisoquinolin-2(1H)-yl)sulfonyl)carbamate]"
3,5.00 to 6.00,"CC(C)(C)OC(=O)NS(=O)(=O)Nc1ccc(Cc2n[nH]c(=O)c3ccccc23)cc1 [Example 169, tert-butyl (N-(4-((4-oxo-3,4-dihydrophthalazin-1-yl)methyl)phenyl)sulfamoyl)carbamate]"
4,< 5.00,"Nc1cccc(-c2nn(Cc3ccccc3)c(=O)c3ccccc23)c1 [Compound No. 32, 4-(3-aminophenyl)-2-benzylphthalazin-1(2H)-one hydrochloride]"
5,> 6.00,"COc1cc2c(-c3ccc4c(c3)CN(S(N)(=O)=O)CC4)n[nH]c(=O)c2cc1OC [Compound No. 122, 7-(6,7-dimethoxy-4-oxo-3,4-dihydrophthalazin-1-yl)-3,4-dihydroisoquinoline-2(1H)-sulfamide]"
6,< 5.00,"CC(C)(C)OC(=O)N1CCc2cc(-c3n[nH]c(=O)c4ccccc34)ccc2C1 [Compound No. 26, tert-butyl 6-(4-oxo-3,4-dihydrophthalazin-1-yl)-3,4-dihydroisoquinoline-2(1H)-carboxylate]"
7,> 6.00,"COc1cc2c(Cc3ccc(N(C)S(N)(=O)=O)cc3)n[nH]c(=O)c2cc1OC [Example 185, N-(4-((6,7-dimethoxy-4-oxo-3,4-dihydrophthalazin-1-yl)methyl)phenyl)-N-methylsulfamide hydrochloride]"
8,< 5.00,"CCn1nc(-c2ccc(CNS(=O)(=O)NC(=O)OC(C)(C)C)cc2)c2ccccc2c1=O [Compound No. 67, tert-butyl (N-(4-(3-ethyl-4-oxo-3,4-dihydrophthalazin-1-yl)benzyl)sulfamoyl)carbamate]"
9,< 5.00,Cn1nc(-c2ccc(CNC(=O)OC(C)(C)C)cc2)c2ccccc2c1=O [Compound No. 9]
10,< 5.00,"COc1cc2c(Cc3cccc(NS(=O)(=O)NC(=O)OC(C)(C)C)c3)n[nH]c(=O)c2cc1OC [Example 167, tert-butyl (N-(3-((6,7-dimethoxy-4-oxo-3,4-dihydrophthalazin-1-yl)methyl)phenyl)sulfamoyl)carbamate]"
11,> 6.00,"Cn1nc(-c2ccc(NS(N)(=O)=O)cc2)c2ccccc2c1=O [Compound No. 92, N-(4-(3-methyl-4-oxo-3,4-dihydrophthalazin-1-yl)phenyl)sulfamide]"
12,< 5.00,"COc1cc2c(-c3ccc(CN)c(C(F)(F)F)c3)n[nH]c(=O)c2cc1OC [Example 203, 4-(4-(aminomethyl)-3-(trifluoromethyl)phenyl-6,7-dimethoxyphthalazin-1(2.8)-one hydrochloride]"
13,< 5.00,CC(C)(C)OC(=O)NS(=O)(=O)NCc1ccc(-c2nn(Cc3ccccc3)c(=O)c3ccccc23)cc1 [Compound No. 70]
